Experiments:
[1] = target: T1, mouse TP receptor (Mus musculus, UniProt P30987); assay: Suppression of signaling through mouse TP receptor; format: cell-based
T1 sequence (P30987 1-341): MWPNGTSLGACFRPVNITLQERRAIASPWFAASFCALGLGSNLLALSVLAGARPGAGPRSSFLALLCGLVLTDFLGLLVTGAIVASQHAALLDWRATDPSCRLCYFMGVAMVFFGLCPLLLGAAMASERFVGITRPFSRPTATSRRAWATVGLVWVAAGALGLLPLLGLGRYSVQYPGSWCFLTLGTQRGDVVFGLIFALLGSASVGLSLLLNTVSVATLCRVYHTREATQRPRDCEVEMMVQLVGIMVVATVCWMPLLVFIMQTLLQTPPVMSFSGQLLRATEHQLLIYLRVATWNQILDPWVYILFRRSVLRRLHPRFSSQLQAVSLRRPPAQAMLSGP

[2] = Intrinsic clearance by mouse liver microsomes; format: in vitro ADME; conditions: for CLHEP (predicted hepatic clearance): estimated from Clint, mouse hepatic blood flow QH 90 mL/min/kg
[3] = test system: phenylephrine vasoconstriction; assay: Phenylephrine pressor response control in anesthetized mice; format: in vivo, mouse; conditions: phenylephrine 10 μg/kg; data not shown
[4] = Metabolite identification in hepatic subcellular fractions; format: in vitro ADME; conditions: NADPH-independent hydrolysis and NADPH-dependent oxidation
[5] = target: T2, mouse EP1 receptor (Mus musculus, UniProt P35375); conditions: for Schild regression slope m: representative experiment, six antagonist concentrations, agonist 17PTPGE2
T2 sequence (P35375 1-405): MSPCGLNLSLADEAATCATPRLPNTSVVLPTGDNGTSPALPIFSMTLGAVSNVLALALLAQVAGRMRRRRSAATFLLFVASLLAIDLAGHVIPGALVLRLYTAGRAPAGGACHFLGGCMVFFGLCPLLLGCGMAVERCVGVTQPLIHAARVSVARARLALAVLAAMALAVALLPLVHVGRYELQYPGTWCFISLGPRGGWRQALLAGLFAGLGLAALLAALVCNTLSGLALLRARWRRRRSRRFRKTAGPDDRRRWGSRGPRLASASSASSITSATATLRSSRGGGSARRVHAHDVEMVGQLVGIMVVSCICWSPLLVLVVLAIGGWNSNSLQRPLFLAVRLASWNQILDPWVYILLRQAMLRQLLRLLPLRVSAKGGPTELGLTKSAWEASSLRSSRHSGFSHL

[6] = In vivo pharmacokinetics of 7 in mice; conditions: mouse, plasma, iv, 1 mg/kg
[7] = test system: human EP1 receptor; conditions: cited from earlier work
[8] = test system: human thromboxane (TP) receptor; conditions: cited from earlier work
[9] = several species; cited from earlier work

Row | SMILES | IC50 [1] [µM] | CLHEP (predicted hepatic clearance) [2] [mL/min/kg] | CLint scaled ([2]; mouse, liver microsomes) [mL/min/kg] | further results
1 | CC(C)(C)NC(=O)c1cccc(Cc2cc(Cl)ccc2OCc2ccc(Cl)cc2F)n1 [Compound 13] | > 1 | – | – | –
2 | O=C(NS(=O)(=O)c1ccc(Cl)cc1)c1cccc(Cc2cc(Cl)ccc2OCc2ccc(Cl)cc2F)n1 [Compound 17] | > 1 | 86.6 | 2260 | Clint (intrinsic clearance) ([2]; mouse, liver microsomes): less stable in mouse hepatic microsomes than 7; Effect of pretreatment on phenylephrine pressor activity [3]: unaffected; Biotransformation in metabolite identification studies [4]: extensive biotransformation; Kd [5]: 0.0865 µM; Schild regression slope m [5]: 1.20 ± 0.12
3 | Cc1ccc(S(=O)(=O)NC(=O)c2cccc(Cc3cc(Cl)ccc3OCc3ccc(Cl)cc3F)n2)cc1 [Compound 19] | > 1 | 88.4 | 5040 | –
4 | O=C(NS(=O)(=O)c1cc(Cl)ccc1Cl)c1cccc(Cc2cc(Cl)ccc2OCc2ccc(Cl)cc2F)n1 [Compound 18] | > 1 | – | – | –
5 | NC(=O)c1cccc(Cc2cc(Cl)ccc2OCc2ccc(Cl)cc2F)n1 [Compound 16] | > 1 | – | – | –
6 | CCCS(=O)(=O)NC(=O)c1cccc(Cc2cc(Cl)ccc2OCc2ccc(Cl)cc2F)n1 [Compound 20] | > 1 | – | – | –
7 | O=C(NC1CCC1)c1cccc(Cc2cc(Cl)ccc2OCc2ccc(Cl)cc2F)n1 [Compound 10] | > 1 | – | – | –
8 | CCC(C)NC(=O)c1cccc(Cc2cc(Cl)ccc2OCc2ccc(Cl)cc2F)n1 (centres unmarked) [Compound 12] | > 1 | – | – | –
9 | O=C(O)c1cccc(Cc2cc(Cl)ccc2OCc2ccc(Cl)cc2F)n1 [Compound 7, reference compound] | 0.912 | 43.6 | 84.7 | Concentration suppressing mouse TP signaling relative to human receptor ([1]; mouse TP vs human TP): 100 fold; half-life [6]: > 1 h; Affinity for the human EP1 receptor [7]: good affinity; Interaction with the human thromboxane (TP) receptor [8]: high-affinity interaction; Stability in microsomes and S9 fractions [9]: stable; Kd [5]: 0.0521 µM; Functional antagonism of mEP1 in vitro ([5]; Schild analysis): functional antagonist of mEP1; Schild regression slope m [5]: 0.953 ± 0.085
10 | CC(C)CNC(=O)c1cccc(Cc2cc(Cl)ccc2OCc2ccc(Cl)cc2F)n1 [Compound 11] | > 1 | 89.2 | 9810 | Biotransformation in metabolite identification studies [4]: extensive biotransformation
11 | O=C(NCC1CC1)c1cccc(Cc2cc(Cl)ccc2OCc2ccc(Cl)cc2F)n1 [Compound 8] | > 1 | 89.3 | 11400 | –
12 | O=C(c1cccc(Cc2cc(Cl)ccc2OCc2ccc(Cl)cc2F)n1)N1CCCC1 [Compound 9] | > 1 | – | – | mEP1 pKD ([5]; Schild analysis, mean ± SEM of at least two independent experiments in duplicate): 4.80 ± 0.05
13 | O=C(NS(=O)(=O)c1ccc(Cl)c(Cl)c1)c1cccc(Cc2cc(Cl)ccc2OCc2ccc(Cl)cc2F)n1 [Compound 21] | > 1 | 87.4 | 2990 | –
14 | CCN(CC)C(=O)c1cccc(Cc2cc(Cl)ccc2OCc2ccc(Cl)cc2F)n1 [Compound 14] | > 1 | 88.9 | 7160 | –
15 | O=C(NC1CC2CCC1C2)c1cccc(Cc2cc(Cl)ccc2OCc2ccc(Cl)cc2F)n1 (centres unmarked) [Compound 15] | > 1 | – | – | –

Reference: article PMC3534858 (Bioorganic & medicinal chemistry letters, 2012)
